Among the data in BindingDB's records for doi:10.1021/jm0490641 (Boehringer Ingelheim Pharma, 2005) are IC50 values, retold here.

The target of the assay is Calcitonin gene-related peptide receptor (Callithrix jacchus). Kind of assay: Affinity against calcitonin gene related peptide receptor (1 uM) in marmoset tissue homogenates using [125I]CGRP as radioligand after 180 minutes of incubation at pH 7.40. As to conditions: pH 7.4.

On to `NCCCC[C@@H](NC(=O)[C@H](Cc1cc(Br)c(O)c(Br)c1)NC(=O)N1CCC(n2c(=O)[nH]c3ccccc32)CC1)C(=O)N1CCN(c2ccncc2)CC1` [4-(2-Oxo-2,3-dihydro-benzoimidazol-1-yl)-piperidine-1-carboxylic acid [(S)-1-[(R)-5-amino-1-(4-pyridin-4-yl-piperazine-1-carbonyl)-pentylcarbamoyl]-2-(3,5-dibromo-4-hydroxy-phenyl)-ethyl]-amide], for which the IC50 was 2.7 nM.

One may read the IC50 as the concentration needed to halve the response being measured.
